Assay results: patent publication US6737383B1, “Herbicidal oxadiazolidines” (priority 1999, dated 2004)

Tests used:
Spanishneedles = experiment: Test D Spanishneedles; type: in vivo, Bidens bipinnata; conditions: Preemergence, 0 to 100 scale
Outline: (§1)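 Greenhouse pots, sandy loam, single species per pot. Preemergence tests: soil-surface application ≤1 day after planting. Compound formulated in non-phytotoxic solvent with surfactant. Visual rating 14–21 DAT, scale 0–100.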

velvetleaf = experiment: Test B pre/postemergence velvetleaf; type: in vivo, Abutilon theophrasti
Outline: (§2)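 Response is a visual 0-to-10 score relative to untreated plants, where 0 means no effect and 10 means complete control, taken twelve to sixteen days after application. Treatments went onto soil at planting and onto foliage of 1- to 4-leaf plants, using a surfactant-containing non-phytotoxic solvent.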

sandbur = experiment: Test D sandbur; type: in vivo, Cenchrus echinatus; conditions: Preemergence, 0 to 100 scale
Outline: as §1

Italian ryegrass = experiment: Test E Italian ryegrass; type: in vivo, Lolium multiflorum; conditions: Preemergence
winter wheat [1] = experiment: Test E winter wheat; type: in vivo, Triticum aestivum; conditions: Postemergence
Outline: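 Greenhouse test: compounds in non-phytotoxic solvent with surfactant; for postemergence, sprayed on plants at 1- to 4-leaf stage grown in 60:40 sandy loam/potting mix. Injury rated visually against untreated controls after about 21 to 28 days.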

bamyardgrass = experiment: Test B flood test barnyardgrass; type: in vivo, Echinochloa crus-galli
Outline: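 Flood test on plants grown to the 2-leaf stage; treated plants kept in greenhouse twelve to sixteen days, then visually rated against controls on a 0 (no effect) to 10 (complete control) scale.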

winter wheat [2] = experiment: Test E winter wheat; type: in vivo, Triticum aestivum; conditions: Preemergence
wild oat = experiment: Test E wild oat; type: in vivo, Avena fatua; conditions: Preemergence
rape = experiment: Test B pre/postemergence rape; type: in vivo, Brassica napus
Outline: as §2

green foxtail = experiment: Test E green foxtail; type: in vivo, Setaria viridis; conditions: Preemergence
blackgrass = experiment: Test E blackgrass; type: in vivo, Alopecurus myosuroides; conditions: Preemergence
wheat = experiment: Test B pre/postemergence wheat; type: in vivo, Triticum aestivum
Outline: as §2

winter barley = experiment: Test E winter barley; type: in vivo, Hordeum vulgare; conditions: Preemergence
[3] = Rate 16 g/ha, 0 no injury, 100 complete control
[4] = Rate 32 g/ha, 0 no injury, 100 complete control
[5] = Rate 64 g/ha, 0 no injury, 100 complete control
[6] = Rate 125 g/ha, 0 no injury, 100 complete control
[7] = Postemergence, Rate 62 g/ha, scale 0 to 10, 0 is no effect, 10 is complete control
[8] = Postemergence, Rate 250 g/ha, scale 0 to 10, 0 no effect, 10 complete control
[9] = Preemergence, Rate 31 g/ha, visual rating, scale 0 to 10 (0 no effect, 10 complete control)
[10] = Preemergence, Rate 62 g/ha, scale 0 to 10, 0 is no effect, 10 is complete control
[11] = Preemergence, Rate 125 g/ha, scale 0 to 10 (0 no effect, 10 complete control)
[12] = Preemergence, Rate 250 g/ha, scale of 0 to 10 where 0 is no effect and 10 is complete control
[13] = Rate 125 g/ha, Postemergence, scale 0 to 10, 0 no effect, 10 complete control
[14] = Rate 500 g/ha, 0 to 100 scale where 0 is no effect and 100 is complete control
[15] = Rate 1000 g/ha, 0 to 100 scale where 0 is no effect and 100 is complete control
[16] = Rate 250 g/ha, 0 to 100 scale (0 no effect, 100 complete control)
[17] = Rate 125 g/ha, Postemergence section (flood test species), scale 0 to 10, 0 no effect, 10 complete control
[18] = flood test, listed under Postemergence, Rate 250 g/ha, scale 0 to 10, 0 no effect, 10 complete control
[19] = Postemergence, Rate 125 g/ha, scale of 0 to 10 where 0 is no effect and 10 is complete control
[20] = Preemergence, Rate 62 g/ha, scale 0 to 10 (0 no effect, 10 complete control)
[21] = Preemergence, Rate 125 g/ha, 0 is no effect, 10 is complete control
[22] = Preemergence, Rate 500 g/ha, scale 0 to 10 (0 no effect, 10 complete control)
[23] = Rate 62 g/ha, Postemergence, scale of 0 to 10 where 0 is no effect and 10 is complete control
[24] = Rate 250 g/ha, Postemergence, scale 0 to 10, 0 is no effect, 10 is complete control
[25] = Rate 500 g/ha, Postemergence, scale 0 to 10, 0 no effect, 10 complete control
[26] = Rate 62 g/ha, 0 to 100 scale, 0 no effect, 100 complete control
[27] = Rate 125 g/ha, 0 to 100 scale (0 no effect, 100 complete control)

COc1ccccc1-n1c(=O)on(C(=O)N(c2ccc(F)cc2)C(C)C)c1=O [Compound 30]
Plant response rating, Spanishneedles (Spanishneedles; [3]): 0
Plant response rating, Spanishneedles (Spanishneedles; [4]): 0
Spanishneedles plant response rating (Spanishneedles; [5]): 0
Spanishneedles plant response rating (Spanishneedles; [6]): 0
Plant response rating, Spanishneedles (Spanishneedles; Rate 500 g/ha): 0
Velvetleaf plant response rating (velvetleaf; [7]): 0
Velvetleaf plant response rating (velvetleaf; [8]): 0
Velvetleaf plant response rating (velvetleaf; [9]): 0
Plant response rating, Velvetleaf (velvetleaf; [10]): 0
Plant response rating, Velvetleaf (velvetleaf; [11]): 0
Plant response rating, Velvetleaf (velvetleaf; [12]): 3
Velvetleaf plant response rating (velvetleaf; [13]): 0
Plant response rating, Sandbur (sandbur; [3]): 0
Plant response rating, Sandbur (sandbur; [4]): 0
Sandbur plant response rating (sandbur; [5]): 0
Sandbur plant response rating (sandbur; [6]): 40
Plant response rating, Sandbur (sandbur; Rate 250 g/ha): 40
Plant response rating, Sandbur (sandbur; Rate 500 g/ha): 100
Plant response rating, I. Ryegrass (Italian ryegrass; Rate 250 g/ha, 0 to 100 scale): 20
Plant response rating, I. Ryegrass (Italian ryegrass; [14]): 40
Plant response rating, I. Ryegrass (Italian ryegrass; [15]): 50
Plant response rating, Wheat (winter) (winter wheat [1]; [16]): 0
Plant response rating, Wheat (winter) (winter wheat [1]; Rate 1000 g/ha, 0 to 100 scale, 0 is no effect and 100 is complete control): 0
Plant response rating, Wheat (winter) (winter wheat [1]; Rate 500 g/ha, 0 to 100 scale, 0 no effect, 100 complete control): 0
Barnyardgrass plant response rating (bamyardgrass; [7]): 0
Barnyardgrass plant response rating (bamyardgrass; [17]): 0
Barnyardgrass plant response rating (bamyardgrass; Rate 250 g/ha, headed Pre-emergence (flood test species), scale 0 to 10 (0 no effect, 10 complete control)): 0
Barnyardgrass plant response rating (bamyardgrass; Rate 500 g/ha, Postemergence section of Table B, 0 to 10 scale (0 no effect, 10 complete control)): 0
Plant response rating, Barnyardgrass (bamyardgrass; Rate 500 g/ha, headed Pre-emergence (flood test species), scale 0 to 10 (0 no effect, 10 complete control)): 0
Barnyardgrass plant response rating (bamyardgrass; Rate 1000 g/ha, Pre-emergence (as headed), scale 0 to 10): 0
Barnyardgrass plant response rating (bamyardgrass; Rate 2000 g/ha, Pre-emergence (as headed), scale 0 to 10, 0 no effect, 10 complete control): 0
Barnyardgrass plant response rating (bamyardgrass; [18]): 0
Plant response rating, Wheat (winter) (winter wheat [2]; Rate 250 g/ha, 0 to 100 scale): 0
Plant response rating, Wheat (winter) (winter wheat [2]; [14]): 0
Plant response rating, Wheat (winter) (winter wheat [2]; [15]): 0
Plant response rating, Wild oat (wild oat; [14]): 10
Plant response rating, Wild oat (wild oat; [15]): 20
Rape plant response rating (rape; [7]): 0
Rape plant response rating (rape; [8]): 0
Rape plant response rating (rape; [9]): 0
Plant response rating, Rape (rape; [10]): 0
Plant response rating, Rape (rape; [11]): 0
Plant response rating, Rape (rape; [12]): 0
Rape plant response rating (rape; Rate 31 g/ha, Postemergence, scale 0 to 10): 0
Rape plant response rating (rape; [13]): 0
Plant response rating, Green foxtail (green foxtail; Rate 250 g/ha, 0 to 100 scale): 30
Plant response rating, Green foxtail (green foxtail; [14]): 60
Plant response rating, Green foxtail (green foxtail; [15]): 60
Plant response rating, Blackgrass (blackgrass; Rate 250 g/ha, 0 to 100 scale): 30
Plant response rating, Blackgrass (blackgrass; [15]): 30
Wheat plant response rating (wheat; [7]): 0
Wheat plant response rating (wheat; [8]): 0
Wheat plant response rating (wheat; [9]): 0
Plant response rating, Wheat (wheat; [10]): 0
Plant response rating, Wheat (wheat; [11]): 0
Plant response rating, Wheat (wheat; [12]): 2
Wheat plant response rating (wheat; [13]): 0
Plant response rating, Barley (winter) (winter barley; Rate 250 g/ha, 0 to 100 scale): 10
Plant response rating, Barley (winter) (winter barley; [14]): 10
Plant response rating, Barley (winter) (winter barley; [15]): 10

CC(C)N(C(=O)n1oc(=O)n(C2CCCCC2)c1=O)c1ccccc1 [Compound 112]
Plant response rating, Spanishneedles (Spanishneedles; [3]): 0
Plant response rating, Spanishneedles (Spanishneedles; [4]): 0
Spanishneedles plant response rating (Spanishneedles; [5]): 0
Plant response rating, Spanishneedles (Spanishneedles; Rate 500 g/ha): 10
Velvetleaf plant response rating (velvetleaf; [19]): 0
Velvetleaf plant response rating (velvetleaf; [20]): 0
Velvetleaf plant response rating (0 to 10 scale) (velvetleaf; [21]): 2
Plant response rating, Velvetleaf (velvetleaf; [12]): 4
Velvetleaf plant response rating (velvetleaf; [22]): 5
Velvetleaf plant response rating (velvetleaf; [23]): 0
Plant response rating, Velvetleaf (velvetleaf; [24]): 1
Velvetleaf plant response rating (velvetleaf; [25]): 1
Plant response rating, Sandbur (sandbur; [3]): 0
Plant response rating, Sandbur (sandbur; [4]): 0
Sandbur plant response rating (sandbur; [5]): 0
Plant response rating, Sandbur (sandbur; Rate 250 g/ha): 0
Plant response rating, Sandbur (sandbur; Rate 500 g/ha): 100
Plant response rating, I. Ryegrass (Italian ryegrass; [26]): 0
Plant response rating, I. Ryegrass (Italian ryegrass; [27]): 0
Plant response rating, I. Ryegrass (Italian ryegrass; Rate 250 g/ha, 0 to 100 scale): 20
Plant response rating, Wheat (winter) (winter wheat [1]; Rate 62 g/ha, 0 to 100 scale): 0
Plant response rating, Wheat (winter) (winter wheat [1]; Rate 125 g/ha, 0 to 100 scale): 0
Plant response rating, Wheat (winter) (winter wheat [1]; [16]): 10
Barnyardgrass plant response rating (bamyardgrass; [7]): 0
Barnyardgrass plant response rating (bamyardgrass; [17]): 0
Barnyardgrass plant response rating (bamyardgrass; Rate 500 g/ha, listed under Postemergence (flood test species), scale 0 to 10, 0 no effect, 10 complete control): 0
Barnyardgrass plant response rating (bamyardgrass; [18]): 0
Plant response rating, Wheat (winter) (winter wheat [2]; [26]): 0
Plant response rating, Wheat (winter) (winter wheat [2]; [27]): 0
Plant response rating, Wheat (winter) (winter wheat [2]; Rate 250 g/ha, 0 to 100 scale): 0
Plant response rating, Wild oat (wild oat; [26]): 0
Plant response rating, Wild oat (wild oat; [27]): 0
Rape plant response rating (rape; [19]): 2
Rape plant response rating (rape; [8]): 3
Rape plant response rating (rape; [20]): 0
Plant response rating, Rape (rape; [11]): 0
Plant response rating, Rape (rape; [12]): 0
Rape plant response rating (rape; [22]): 5
Rape plant response rating (rape; [23]): 2
Rape plant response rating (rape; [25]): 4
Plant response rating, Green foxtail (green foxtail; [26]): 10
Plant response rating, Green foxtail (green foxtail; [27]): 20
Plant response rating, Green foxtail (green foxtail; Rate 250 g/ha, 0 to 100 scale): 50
Plant response rating, Blackgrass (blackgrass; [26]): 10
Plant response rating, Blackgrass (blackgrass; [27]): 20
Plant response rating, Blackgrass (blackgrass; Rate 250 g/ha, 0 to 100 scale): 50
Wheat plant response rating (wheat; [19]): 0
Wheat plant response rating (wheat; [20]): 0
Wheat plant response rating (0 to 10 scale) (wheat; [21]): 0
Plant response rating, Wheat (wheat; [12]): 0
Wheat plant response rating (wheat; [22]): 0
Wheat plant response rating (wheat; [23]): 0
Plant response rating, Wheat (wheat; [24]): 0
Wheat plant response rating (wheat; [25]): 0
Plant response rating, Barley (winter) (winter barley; [26]): 0
Plant response rating, Barley (winter) (winter barley; [27]): 10
Plant response rating, Barley (winter) (winter barley; Rate 250 g/ha, 0 to 100 scale): 10
